Assay results: paper PMC11901705 (Molecules, 2025)

What was measured:
[1] = Stability of vancomycin in non-extracted human plasma samples; format: in vitro ADME; details: for Mean back calculated Vancomycin Concentrations / % Error: non-extracted human plasma; for Mean back calculated Vancomycin Concentrations: HPLC-UV, mean of n = 5; for % Error: n = 5; for time of stability: plasma samples (non-extracted)
Experimental: (§1) The chromatographic separation was performed using HPLC-UV (Shimadzu, Kyoto, Japan), which consisted of solvent delivery pumps (LC-20 AT), an SIL-20A autosampler, and a UV-VIS detector (SPD-10A VP). The HPLC chromatographic separation was performed using a reverse-phase Supleco Discovery® C18 column (5 μm, 250 × 4.6 mm) (Supleco Inc., Mississauga, ON, Canada) with a Discovery® C18 Supelguard™ guard column (5 μm, 20 × 4 mm) (Supleco Inc., Mississauga, ON, Canada). LabSolutions Lite® software version 5.93 (Shimadzu, Kyoto, Japan) was used for the acquisition of data and analysis integration. The mobile phase comprised phosphate buffer and ACN (90:10, v/v). A phosphate buffer with a pH of 2.8 was prepared by combining 175 mL of 0.1 M phosphoric acid with 825 mL of 0.1 M monobasic sodium monophosphate. […] The final concentration of the phosphate buffer was 0.1 M. Separation was carried out using isocratic elution. The flow rate was set to 1 mL/min. The total run time for sample elution was set to 10 min. The detector was set to a wavelength of 192 nm, with the column and autosampler operated at ambient temperature.
(§2) The mixture was vortexed for 40 s and centrifuged at 12,000 rpm for 10 min using an Eppendorf 5424 Microcentrifuge (Eppendorf, Hamburg, Germany). The resultant supernatant was then transferred to a separate HPLC vial with glass inserts. Aliquots of 30 μL was then injected into the HPLC system for analysis. The sample preparation was performed at room temperature and directly injected into the HPLC system.
(§3) The conditions for stability assessment were designed to simulate the conditions encountered during sample storage, handling, and analysis. […] Additionally, we conducted an assessment of freeze–thaw stability involving three cycles, each comprising a 24 h freezing period followed by room temperature thawing, with the cycle being repeated. Acceptability criteria included a stability ratio to reference samples falling within the range of 85% to 115% and a percentage error within 15%.

[2] = cited from earlier work
Text: It is also the preferred agent for managing Gram-positive bacterial infections in patients allergic to beta-lactam antimicrobials.

[3] = Stability of vancomycin in extracted human plasma samples; format: physicochemical; details: for Mean back calculated Vancomycin Concentrations: extracted human plasma, HPLC-UV, mean of n = 5
Experimental: as §1, §2, §3

[4] = Freeze and thaw stability of vancomycin in human plasma; format: in vitro ADME; details: nominal 10 mg/L
Experimental: as §1
The mixture was vortexed for 40 s and centrifuged at 12,000 rpm for 10 min using an Eppendorf 5424 Microcentrifuge (Eppendorf, Hamburg, Germany). The resultant supernatant was then transferred to a separate HPLC vial with glass inserts. […]

[5] = -20 °C, 2 weeks, nominal 10 mg/L
[6] = -80 °C, 2 weeks, nominal 10 mg/L
[7] = -80 °C, 24 hours, nominal 10 mg/L
[8] = -80 °C, 24 hours, nominal 70 mg/L
[9] = fridge temperature, 2 weeks, nominal 10 mg/L
[10] = fridge temperature, 3 hours, nominal 10 mg/L
[11] = fridge temperature, 3 hours, nominal 70 mg/L
[12] = fridge temperature, 24 hours, nominal 10 mg/L
[13] = room temperature, 24 hours, nominal 10 mg/L

## CN[C@H](CC(C)C)C(=O)N[C@H]1C(=O)N[C@@H](CC(N)=O)C(=O)N[C@H]2C(=O)N[C@H]3C(=O)N[C@H](C(=O)N[C@H](C(=O)O)c4cc(O)cc(O)c4-c4cc3ccc4O)[C@H](O)c3ccc(c(Cl)c3)Oc3cc2cc(c3O[C@@H]2O[C@H](CO)[C@@H](O)[C@H](O)[C@H]2O[C@H]2C[C@](C)(N)[C@H](O)[C@H](C)O2)Oc2ccc(cc2Cl)[C@H]1O [Vancomycin]
[1]; [5]
  Mean back calculated Vancomycin Concentrations: 8.179 mg/L
  % Error: 18.210%
[1]; -20 °C, 2 weeks, nominal 70 mg/L
  % Error: 12.943%
[1]; [6]
  Mean back calculated Vancomycin Concentrations: 8.809 mg/L
  % Error: 11.910%
[1]; -80 °C, 2 weeks, nominal 70 mg/L
  Mean back calculated Vancomycin Concentrations: 69.056 mg/L
[1]; [7]
  Mean back calculated Vancomycin Concentrations: 9.282 mg/L
[1]; [8]
  Mean back calculated Vancomycin Concentrations: 67.964 mg/L
  % Error: 2.909%
[1]; [9]
  Mean back calculated Vancomycin Concentrations: 8.404 mg/L
  % Error: 15.960%
[1]; fridge temperature, 2 weeks, nominal 70 mg/L
  % Error: 1.271%
[1]; [10]
  Mean back calculated Vancomycin Concentrations: 9.276 mg/L
  % Error: 7.240%
[1]; [11]
  Mean back calculated Vancomycin Concentrations: 75.272 mg/L
  % Error: 7.531%
[1]; [12]
  Mean back calculated Vancomycin Concentrations: 8.860 mg/L
  % Error: 11.400%
[1]; fridge temperature, 24 hours, nominal 70 mg/L
  % Error: 0.770%
[1]; room temperature, 3 hours, nominal 70 mg/L
  Mean back calculated Vancomycin Concentrations: 70.355 mg/L
[1]; [13]
  Mean back calculated Vancomycin Concentrations: 9.543 mg/L
[1]; -80 °C
  time of stability: 2 weeks
[1]; room temperature
  time of stability: 24 h
[2]
  oral bioavailability: negligible
[3]; extracted human plasma samples, -80 °C storage
  period with satisfactory precision and accuracy: 2 week
[3]; extracted human plasma samples, storage for 24 h, 1 week and 2 weeks
  degradation on storage at room temperature: substantial degradation
[3]; extracted human plasma samples, under refrigeration
  period with satisfactory precision and accuracy: 2 week
[3]; [6]
  Mean back calculated Vancomycin Concentrations: 8.980 mg/L
[3]; [7]
  Mean back calculated Vancomycin Concentrations: 9.888 mg/L
[3]; fridge temperature (4 °C), 2 weeks, nominal 10 mg/L
  Mean back calculated Vancomycin Concentrations: 8.307 mg/L
[3]; fridge temperature (4 °C), 3 hours, nominal 10 mg/L
  Mean back calculated Vancomycin Concentrations: 8.720 mg/L
[3]; fridge temperature (4 °C), 24 hours, nominal 10 mg/L
  Mean back calculated Vancomycin Concentrations: 9.740 mg/L
[3]; fridge temperature (4 °C), 24 hours, nominal 70 mg/L
  Mean back calculated Vancomycin Concentrations: 76.528 mg/L
[3]; room temperature, 1 week, nominal 10 mg/L
  Mean back calculated Vancomycin Concentrations: 2.491 mg/L
[3]; room temperature, 2 weeks, nominal 10 mg/L
  Mean back calculated Vancomycin Concentrations: 0.722 mg/L
[3]; room temperature, 2 weeks, nominal 70 mg/L
  Mean back calculated Vancomycin Concentrations: 3.647 mg/L
[3]; room temperature, 3 hours, nominal 10 mg/L
  Mean back calculated Vancomycin Concentrations: 9.283 mg/L
[3]; [13]
  Mean back calculated Vancomycin Concentrations: 6.792 mg/L
[4]; three freeze-thaw cycles (24 h freezing, room temperature thawing), HPLC-UV, mean of n = 5
  Mean back calculated Vancomycin Concentrations: 9.289 mg/L
[4]; three freeze-thaw cycles, n = 5
  % Error: 7.110%
